According to ChEMBL document CHEMBL5291721, “A preclinical secondary pharmacology resource illuminates target-adverse drug reaction associations of marketed drugs” (Nat Commun, 2023):

Tests used:
[1] = target: cGMP-inhibited 3',5'-cyclic phosphodiesterase 3A (Homo sapiens, UniProt Q14432); format: functional
[2] = target: Gamma-aminobutyric acid receptor subunit alpha-1 (Rattus norvegicus, UniProt P62813)
[3] = target: T1, 5-hydroxytryptamine receptor 1A (Homo sapiens, UniProt P08908)
T1 sequence (P08908 whole entry): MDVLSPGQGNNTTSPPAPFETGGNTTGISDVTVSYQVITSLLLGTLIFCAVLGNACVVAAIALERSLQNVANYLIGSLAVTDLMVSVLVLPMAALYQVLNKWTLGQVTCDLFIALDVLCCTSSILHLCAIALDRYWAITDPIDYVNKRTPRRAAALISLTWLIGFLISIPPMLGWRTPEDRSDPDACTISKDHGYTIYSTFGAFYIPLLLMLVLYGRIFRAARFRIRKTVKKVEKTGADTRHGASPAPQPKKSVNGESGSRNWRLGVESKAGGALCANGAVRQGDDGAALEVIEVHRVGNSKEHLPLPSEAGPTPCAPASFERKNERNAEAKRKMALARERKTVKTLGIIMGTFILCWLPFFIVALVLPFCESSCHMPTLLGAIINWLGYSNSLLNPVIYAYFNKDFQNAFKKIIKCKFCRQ

Acetylcholinesterase = Acetylcholinesterase (Homo sapiens, UniProt P22303); format: functional
Histamine H3 receptor = Histamine H3 receptor (Homo sapiens, UniProt Q9Y5N1)
Chain of Histamine H3 receptor (Q9Y5N1 whole entry): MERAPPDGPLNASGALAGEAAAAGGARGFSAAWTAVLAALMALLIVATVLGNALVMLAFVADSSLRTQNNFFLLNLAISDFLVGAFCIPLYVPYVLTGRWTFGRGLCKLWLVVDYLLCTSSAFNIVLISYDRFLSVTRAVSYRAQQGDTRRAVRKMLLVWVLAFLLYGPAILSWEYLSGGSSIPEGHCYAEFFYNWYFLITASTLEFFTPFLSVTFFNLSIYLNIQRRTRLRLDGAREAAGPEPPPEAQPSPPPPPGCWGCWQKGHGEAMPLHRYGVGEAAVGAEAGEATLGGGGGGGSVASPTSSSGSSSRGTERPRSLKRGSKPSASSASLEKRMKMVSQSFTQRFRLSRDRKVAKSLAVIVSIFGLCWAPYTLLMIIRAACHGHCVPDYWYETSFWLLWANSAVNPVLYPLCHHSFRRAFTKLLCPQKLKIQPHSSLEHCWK

[4] = target: Prostaglandin G/H synthase 1 (Homo sapiens, UniProt P23219); format: functional
Chain of Prostaglandin G/H synthase 1 (P23219 whole entry): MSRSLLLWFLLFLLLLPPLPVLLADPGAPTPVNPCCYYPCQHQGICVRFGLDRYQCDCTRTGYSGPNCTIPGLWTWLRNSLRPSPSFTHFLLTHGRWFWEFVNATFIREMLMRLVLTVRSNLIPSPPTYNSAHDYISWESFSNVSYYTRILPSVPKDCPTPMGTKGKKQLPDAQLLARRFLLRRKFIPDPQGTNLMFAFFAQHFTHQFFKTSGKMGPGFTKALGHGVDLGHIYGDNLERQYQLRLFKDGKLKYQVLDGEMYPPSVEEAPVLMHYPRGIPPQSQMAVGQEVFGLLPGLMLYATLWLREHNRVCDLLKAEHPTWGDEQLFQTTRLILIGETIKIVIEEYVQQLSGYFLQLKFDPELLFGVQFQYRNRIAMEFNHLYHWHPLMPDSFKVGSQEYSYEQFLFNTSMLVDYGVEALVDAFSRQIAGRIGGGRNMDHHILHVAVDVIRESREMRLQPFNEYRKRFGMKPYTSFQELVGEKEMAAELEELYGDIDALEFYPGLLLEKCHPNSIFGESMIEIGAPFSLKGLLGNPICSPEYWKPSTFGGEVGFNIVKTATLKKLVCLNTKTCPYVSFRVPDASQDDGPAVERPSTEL

D(3) dopamine receptor = D(3) dopamine receptor (Homo sapiens, UniProt P35462)
Chain of D(3) dopamine receptor (P35462 whole entry): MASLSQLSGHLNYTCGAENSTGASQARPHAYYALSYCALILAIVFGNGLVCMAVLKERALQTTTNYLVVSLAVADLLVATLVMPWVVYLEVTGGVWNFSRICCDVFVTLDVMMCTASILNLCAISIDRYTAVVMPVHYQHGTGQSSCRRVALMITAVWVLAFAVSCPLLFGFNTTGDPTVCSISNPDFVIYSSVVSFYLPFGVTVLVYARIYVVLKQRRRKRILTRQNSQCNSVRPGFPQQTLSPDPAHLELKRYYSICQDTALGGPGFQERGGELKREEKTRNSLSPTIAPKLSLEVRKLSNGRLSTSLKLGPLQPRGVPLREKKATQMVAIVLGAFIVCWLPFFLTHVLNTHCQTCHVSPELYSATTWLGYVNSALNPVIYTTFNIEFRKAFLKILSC

[5] = target: 5-hydroxytryptamine receptor 2B (Homo sapiens, UniProt P41595); format: functional, cell-based
Chain of 5-hydroxytryptamine receptor 2B (P41595 whole entry): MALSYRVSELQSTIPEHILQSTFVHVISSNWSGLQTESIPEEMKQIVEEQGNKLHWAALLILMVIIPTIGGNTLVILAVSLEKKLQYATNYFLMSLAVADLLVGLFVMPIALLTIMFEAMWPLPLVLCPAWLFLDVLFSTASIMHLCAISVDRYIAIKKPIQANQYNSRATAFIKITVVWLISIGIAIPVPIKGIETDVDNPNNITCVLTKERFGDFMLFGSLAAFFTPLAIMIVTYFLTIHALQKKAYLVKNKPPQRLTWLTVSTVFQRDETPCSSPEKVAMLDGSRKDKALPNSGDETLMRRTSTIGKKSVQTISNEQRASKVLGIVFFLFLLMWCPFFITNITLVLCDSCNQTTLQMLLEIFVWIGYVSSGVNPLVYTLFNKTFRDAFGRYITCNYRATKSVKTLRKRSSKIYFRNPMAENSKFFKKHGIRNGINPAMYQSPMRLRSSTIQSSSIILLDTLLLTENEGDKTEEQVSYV

Thromboxane A2 receptor = target: T2, Thromboxane A2 receptor (Homo sapiens, UniProt P21731); format: functional, cell-based
T2 sequence (P21731 whole entry): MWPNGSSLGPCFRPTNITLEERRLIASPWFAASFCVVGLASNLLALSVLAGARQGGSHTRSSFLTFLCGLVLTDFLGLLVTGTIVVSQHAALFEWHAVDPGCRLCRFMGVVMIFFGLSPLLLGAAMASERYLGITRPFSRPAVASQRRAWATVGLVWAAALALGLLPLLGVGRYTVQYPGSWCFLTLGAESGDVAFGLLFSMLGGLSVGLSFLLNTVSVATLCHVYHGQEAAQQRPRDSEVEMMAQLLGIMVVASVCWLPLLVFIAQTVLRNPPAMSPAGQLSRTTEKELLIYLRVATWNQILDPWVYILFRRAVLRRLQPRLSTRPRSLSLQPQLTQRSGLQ

Adenosine receptor A3 = target: T3, Adenosine receptor A3 (Homo sapiens, UniProt P0DMS8)
T3 sequence (P0DMS8 whole entry): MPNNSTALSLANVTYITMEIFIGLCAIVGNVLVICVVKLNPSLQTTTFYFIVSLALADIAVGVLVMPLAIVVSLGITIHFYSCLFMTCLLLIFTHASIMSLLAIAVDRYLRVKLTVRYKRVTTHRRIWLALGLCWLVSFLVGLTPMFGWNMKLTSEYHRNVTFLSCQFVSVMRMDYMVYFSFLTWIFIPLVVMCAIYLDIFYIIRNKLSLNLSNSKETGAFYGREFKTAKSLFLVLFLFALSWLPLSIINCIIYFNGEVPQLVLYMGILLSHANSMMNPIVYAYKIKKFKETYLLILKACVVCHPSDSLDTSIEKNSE

[6] = target: Voltage-gated inwardly rectifying potassium channel KCNH2 (Homo sapiens, UniProt Q12809); format: functional; details: read-out: AC50
Chain of Voltage-gated inwardly rectifying potassium channel KCNH2 (Q12809 whole entry): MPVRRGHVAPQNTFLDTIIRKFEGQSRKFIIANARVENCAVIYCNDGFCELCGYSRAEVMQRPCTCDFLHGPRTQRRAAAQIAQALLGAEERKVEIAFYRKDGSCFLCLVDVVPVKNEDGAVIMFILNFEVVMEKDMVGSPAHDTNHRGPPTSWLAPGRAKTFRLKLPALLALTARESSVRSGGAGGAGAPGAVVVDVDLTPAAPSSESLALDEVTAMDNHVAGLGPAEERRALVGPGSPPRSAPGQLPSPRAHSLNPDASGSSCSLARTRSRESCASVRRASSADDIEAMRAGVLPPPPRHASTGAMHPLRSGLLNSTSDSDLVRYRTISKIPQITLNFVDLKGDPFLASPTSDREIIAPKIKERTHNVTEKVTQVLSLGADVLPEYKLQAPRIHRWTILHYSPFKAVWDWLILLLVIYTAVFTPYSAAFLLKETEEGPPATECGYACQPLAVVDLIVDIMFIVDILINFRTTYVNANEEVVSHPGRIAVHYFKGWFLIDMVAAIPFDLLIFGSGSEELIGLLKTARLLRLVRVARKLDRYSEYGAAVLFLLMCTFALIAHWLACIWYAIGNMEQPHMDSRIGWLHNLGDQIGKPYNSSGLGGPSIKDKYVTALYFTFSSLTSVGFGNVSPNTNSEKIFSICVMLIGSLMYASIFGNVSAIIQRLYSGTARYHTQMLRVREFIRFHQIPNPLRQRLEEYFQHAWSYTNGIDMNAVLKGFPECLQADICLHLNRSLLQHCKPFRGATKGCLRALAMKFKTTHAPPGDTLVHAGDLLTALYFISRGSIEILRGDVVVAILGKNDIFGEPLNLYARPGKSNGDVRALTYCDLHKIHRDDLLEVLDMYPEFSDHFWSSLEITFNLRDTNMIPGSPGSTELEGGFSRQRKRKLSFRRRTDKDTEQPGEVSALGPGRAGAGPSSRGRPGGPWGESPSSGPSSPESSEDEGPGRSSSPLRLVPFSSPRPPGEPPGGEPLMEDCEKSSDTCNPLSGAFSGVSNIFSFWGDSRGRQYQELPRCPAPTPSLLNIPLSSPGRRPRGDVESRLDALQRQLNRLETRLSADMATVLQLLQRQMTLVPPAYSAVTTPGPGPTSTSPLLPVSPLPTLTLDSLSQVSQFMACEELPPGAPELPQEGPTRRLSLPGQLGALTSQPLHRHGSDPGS

[7] = target: Gamma-aminobutyric acid receptor subunit alpha-1/alpha-2/beta-2/gamma-2 (Homo sapiens, UniProt P14867+P18507+P47869+P47870); format: protein-complex assay
Note: assay procedure not described here.

Chain of cGMP-inhibited 3',5'-cyclic phosphodiesterase 3A (Q14432 whole entry): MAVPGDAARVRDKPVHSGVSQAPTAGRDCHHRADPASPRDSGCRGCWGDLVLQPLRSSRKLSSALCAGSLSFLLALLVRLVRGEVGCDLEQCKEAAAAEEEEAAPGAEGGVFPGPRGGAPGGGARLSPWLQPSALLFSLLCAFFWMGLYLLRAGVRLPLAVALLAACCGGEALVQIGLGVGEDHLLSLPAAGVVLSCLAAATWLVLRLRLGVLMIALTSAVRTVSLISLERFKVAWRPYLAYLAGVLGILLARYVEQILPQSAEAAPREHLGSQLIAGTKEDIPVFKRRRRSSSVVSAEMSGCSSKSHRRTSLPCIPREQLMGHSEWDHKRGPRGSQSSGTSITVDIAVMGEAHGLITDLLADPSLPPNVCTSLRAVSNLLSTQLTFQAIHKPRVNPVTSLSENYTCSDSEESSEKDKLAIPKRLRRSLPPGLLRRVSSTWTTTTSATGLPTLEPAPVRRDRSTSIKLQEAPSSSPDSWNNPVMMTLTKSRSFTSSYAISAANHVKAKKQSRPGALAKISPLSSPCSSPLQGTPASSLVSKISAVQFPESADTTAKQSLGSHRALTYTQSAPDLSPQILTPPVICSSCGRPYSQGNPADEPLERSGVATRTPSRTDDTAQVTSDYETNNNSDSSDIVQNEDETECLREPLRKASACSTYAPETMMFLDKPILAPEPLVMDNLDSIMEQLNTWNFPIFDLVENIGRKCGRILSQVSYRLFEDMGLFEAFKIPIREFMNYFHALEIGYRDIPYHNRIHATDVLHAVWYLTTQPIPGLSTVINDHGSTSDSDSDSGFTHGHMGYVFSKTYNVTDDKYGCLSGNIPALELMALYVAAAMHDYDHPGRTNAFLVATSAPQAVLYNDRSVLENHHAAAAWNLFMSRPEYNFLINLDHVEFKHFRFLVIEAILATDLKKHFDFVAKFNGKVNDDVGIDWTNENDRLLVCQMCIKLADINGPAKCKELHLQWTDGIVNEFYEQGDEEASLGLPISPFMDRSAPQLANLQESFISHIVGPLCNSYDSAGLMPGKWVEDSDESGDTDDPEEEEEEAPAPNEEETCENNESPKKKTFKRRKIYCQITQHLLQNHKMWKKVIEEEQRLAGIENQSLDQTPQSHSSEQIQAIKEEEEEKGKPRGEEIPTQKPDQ
Chain of Gamma-aminobutyric acid receptor subunit alpha-1 (P62813 whole entry): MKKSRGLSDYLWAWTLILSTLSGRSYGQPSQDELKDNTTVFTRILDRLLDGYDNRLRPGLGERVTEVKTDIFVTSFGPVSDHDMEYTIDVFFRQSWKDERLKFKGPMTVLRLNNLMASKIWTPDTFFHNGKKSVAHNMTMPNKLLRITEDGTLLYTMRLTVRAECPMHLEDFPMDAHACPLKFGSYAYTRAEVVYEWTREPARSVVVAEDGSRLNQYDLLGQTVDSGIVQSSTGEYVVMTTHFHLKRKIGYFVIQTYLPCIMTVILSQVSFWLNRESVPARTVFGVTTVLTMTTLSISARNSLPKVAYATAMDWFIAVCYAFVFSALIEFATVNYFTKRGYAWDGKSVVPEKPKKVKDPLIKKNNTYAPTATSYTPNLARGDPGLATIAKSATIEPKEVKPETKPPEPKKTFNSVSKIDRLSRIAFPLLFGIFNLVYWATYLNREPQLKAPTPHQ

Row | SMILES | AC50 [1] [µM] | AC50 [2] [µM] | AC50 [3] [µM] | AC50 (Acetylcholinesterase) [µM] | AC50 (Histamine H3 receptor) [µM] | AC50 [4] [µM] | AC50 (D(3) dopamine receptor) [µM] | AC50 [5] [µM] | AC50 (Thromboxane A2 receptor) [µM] | AC50 (Adenosine receptor A3) [µM] | AC50 [6] [µM] | AC50 [7] [µM]
1 | C[S+](CC[C@H](N)C(=O)[O-])C[C@H]1O[C@@H](n2cnc3c(N)ncnc32)[C@H](O)[C@@H]1O (stereo partly drawn) [ADEMETIONINE] | > 30 | > 30 | > 30 | > 30 | > 30 | > 30 | > 30 | > 30 | > 30 | 0.174 |  | 
2 | COc1ccc2c(c1)N(C[C@H](C)CN(C)C)c1ccccc1S2 [LEVOMEPROMAZINE] | > 30 |  | 2.84 | > 30 | > 30 | > 30 | 0.019 | > 30 | 26 | > 30 | 11 | > 30
3 | CC(C)(C)C(=O)C(Oc1ccc(Cl)cc1)n1ccnc1 (stereo not drawn) [CLIMBAZOLE] | > 30 |  | > 30 | > 30 | > 30 | > 30 | > 30 | > 30 | > 30 | 20.2 | > 30 | > 30
4 | Cc1ccccc1OCC(O)CO (stereo not drawn) [MEPHENESIN] | > 30 | > 10 | > 30 | > 30 | > 30 | > 30 | > 30 | > 30 | > 30 | > 30 | > 30 | 
5 | Cc1cc(OP(=O)(O)O)c2ccccc2c1OP(=O)(O)O [MENADIOL SODIUM DIPHOSPHATE] | > 30 | > 30 | > 30 | > 30 | > 30 | > 30 | > 30 | > 30 | > 30 | > 30 |  | 
6 | COc1cc2c3cc1Oc1cc(ccc1O)C[C@@H]1c4c(cc(OC)c(O)c4Oc4ccc(cc4)C[C@@H]3N(C)CC2)CC[N+]1(C)C [TUBOCURARINE] | > 30 |  | > 30 | > 30 | > 30 | > 30 | > 30 | > 30 | > 30 | > 30 | > 30 | > 30
7 | CC(C)C[C@H]1C(=O)N2CCC[C@H]2[C@]2(O)O[C@](NC(=O)[C@@H]3C[C@@H]4c5cccc6[nH]cc(c56)C[C@H]4N(C)C3)(C(C)C)C(=O)N12 [DIHYDROERGOCRYPTINE] | > 30 |  | 0.0125 | > 30 | > 30 | 27.4 | 0.202 | > 30 | > 30 | > 30 | > 30 | > 30
8 | CC(=O)Oc1c(C)c(C)c2c(c1C)CC[C@@](C)(CCC[C@H](C)CCC[C@H](C)CCCC(C)C)O2 | 0.933 |  | > 30 | > 30 | > 30 | > 30 | > 30 | > 30 | > 30 | > 30 | > 30 | > 30
9 | Cc1cc(NS(=O)(=O)c2ccc(N)cc2)nc(C)n1 [SULFISOMIDINE] | > 30 | > 30 | > 30 | > 30 | > 30 | > 30 | > 30 | > 30 | > 30 | > 30 | > 30 | 
10 | CCCNC(C)C(=O)Nc1c(C)csc1C(=O)OC (stereo not drawn) [ARTICAINE] | > 30 |  |  | > 30 | > 30 | > 30 | > 30 | > 30 | > 30 | > 30 | > 30 | > 30
11 | CC(C)COC(=O)OCN1C(=O)CN(CCN2CC(=O)N(COC(=O)OCC(C)C)C(=O)C2)CC1=O [SOBUZOXANE] | > 30 | > 30 | > 30 | > 30 | > 30 | 29.8 | > 30 | > 30 | > 30 | > 30 | > 30 | 
12 | NC1=NCC2c3ccccc3Cc3ccccc3N12 (stereo not drawn) [EPINASTINE] | > 30 |  | 1.28 | > 30 | > 30 | > 30 | > 30 | > 30 | > 30 | > 30 |  | 28.3
13 | CCN(CC)CCc1nc(-c2ccccc2)no1 [OXOLAMINE] | > 30 | > 30 | 15.5 | > 30 | 23.9 | > 30 |  | > 30 | > 30 | > 30 | > 30 | 
14 | Clc1ccc(C(OCCN2CCCCC2)c2ccccc2)cc1 (stereo not drawn) [CLOPERASTINE] | > 30 | > 30 | 20.1 | > 30 | > 30 | > 30 | 1.05 | > 30 | 17 | > 30 | 0.2 | 
15 | Clc1cc(Cl)c(OCC#CI)cc1Cl [HALOPROGIN] | > 30 | > 30 | > 30 | > 30 | > 30 | > 30 | 1.16 | > 30 | > 30 | 0.946 | 9.85 | 
16 | CC(C)(C)C(=O)OCOC(=O)[C@@H]1N2C(=O)[C@@H](NC(=O)[C@H](N)c3ccccc3)[C@H]2SC1(C)C [PIVAMPICILLIN] | > 30 | > 30 | > 30 | > 30 | > 30 | > 30 | > 30 | > 30 | > 30 | > 30 | > 30 | 
17 | COc1ccc(C(=O)Nc2ccccc2CCC2CCCCN2C)cc1 (stereo not drawn) [ENCAINIDE] | > 30 | > 30 | > 30 | > 30 | > 30 | > 30 | > 30 | > 30 | > 30 | > 30 |  | 
18 | CCN(CC)CCNc1ccc(CO)c2sc3ccccc3c(=O)c12 [HYCANTHONE] | > 30 | > 30 | 7.25 | > 30 | 2.14 | > 30 | 19.5 | > 30 | 23.1 | > 30 | 3.6 | 
19 | CCC(C)(C)c1ccc(CC(C)CN2C[C@@H](C)O[C@@H](C)C2)cc1 (stereo partly drawn) [AMOROLFINE] | > 30 | > 30 | > 30 | > 30 | > 30 | > 30 | 22 | > 30 | > 30 | 12.1 | 11 | 
20 | O=c1[nH]c(=O)n(C2CCCO2)cc1F (stereo not drawn) [TEGAFUR] | > 30 | > 30 | > 30 | > 30 | > 30 | > 30 |  | > 30 | > 30 | > 30 | > 30 | 
21 | NC(=O)C[C@H](N)C(=O)O [ASPARAGINE] | > 30 | > 30 | > 30 | > 30 | > 30 | > 30 | > 30 | > 30 | > 30 | > 30 |  | 
